How the values were obtained:
[1] = parameters: species or system human (subjects with type 1 diabetes mellitus); conditions: human, in vivo, sc
Protocol: The study was conducted in subjects with type 1 diabetes mellitus. This study was conducted to determine if a formulation for pulmonary delivery comprising insulin and a diketopiperazine in the formulation, 1) could be delivered consistently using different dosage strengths and 2) if linearity of dosing could be achieved with proportional doses, given that interchangeability of dosage strengths can be important for patient safety. […] Therefore, an important goal in the development of the pulmonary delivery system with a formulation comprising insulin and FDKP (insulin-FDKP) was to achieve dose linearity across the therapeutic dose range.
In the study, comparisons of insulin exposure following inhalation of two 15 U cartridges of an insulin inhalation powder to one 30 U cartridge of insulin inhalation powder were made. In addition, insulin bioavailability from a 30 U cartridge of insulin-FDKP inhalation powder was calculated, compared to a 10-IU subcutaneous (sc) injection of insulin lispro (rapid acting analogue [RAA]).
A phase I, open-label, single-dose, repeat administration study in subjects with type 1 diabetes (T1DM) was conducted to assess the pharmacokinetic profile or PK of 30 U of insulin-FDKP dosed as a single 30 U cartridge and compared to two 15 U cartridges administered with the present inhalation system. […]

[2] = Baseline-corrected glucose infusion rate (GIR) evaluation under hyperinsulinemic-euglycemic clamp; type: in vivo, human (subjects with type 1 diabetes mellitus); conditions: 10 IU sc RAA
Protocol: A phase I, open-label, single-dose, repeat administration study in subjects with type 1 diabetes (T1DM) was conducted to assess the pharmacokinetic profile or PK of 30 U of insulin-FDKP dosed as a single 30 U cartridge and compared to two 15 U cartridges administered with the present inhalation system. A 10 U subcutaneous injection of the rapid acting insulin analogue (RAA, HUMALOG® (Eli Lilly and Company, Indianapolis, IN)) was also tested. Subjects (age: 19-61 yrs) were randomized to 1 of 6 sequences. Fasted subjects received insulin-FDKP or RAA 4 to 6 hrs after initiating a hyperinsulinemic-euglycemic clamp. Randomization determined the order of insulin-FDKP dosing (first 2 treatment (tx) visits), and the location of the RAA injection (abdomen, arm or leg; 3rd tx visit). After dosing blood samples were taken and analyzed for insulin, insulin lispro and fumaryl diketopiperazine (FDKP (insulin-FDKP tx only)). When studying insulin-FDKP, the basal insulin infusion was performed with HUMALOG®, and when studying HUMALOG®, regular human insulin was used. The analytical methodologies enabled the independent measurement of each insulin tested.
This study also evaluated the effects of the dosages administered and the glucose infusion rate (GIR) requirements of the patients in the study. FIG. 19 illustrates the results of the GIR evaluation. […]

## insulin lispro [Humalog]
[1]
  Insulin PK parameters tmax: 1 h
[2]
  time after administration at which GIR peaked: approximately 150 minutes
  time at which GIR returned toward baseline: ~300 min

Source: patent US12582784B2, “Dry powder inhalation system” (MannKind Corporation, priority 2008, dated 2026)
